Our source for the IC50 values is patent publication US20240228482A1, “COMPOUNDS, COMPOSITIONS AND METHODS OF TREATING CANCER” (HOTSPOT THERAPEUTICS, INC., priority 2021, published 2024).

The test has as its target T1, CBL-B (Homo sapiens, UniProt Q13191).
T1 construct: GST
The test is described as follows: CBL-B TR-FRET IC50 screening (E1/E2 ubiquitination, Biotin-Ubiquitin, Anti GST-Tb donor / Streptavidin-d2 acceptor). The note with it: second part of Table 2 (head 'Patent Cmpd No / Updated Activity'); same CBL-B TR-FRET IC50 bins A-F; read-out: Updated Activity. The test is classed as biochemical.

The structures appear in SMILES notation.

T1 sequence (Q13191 whole entry): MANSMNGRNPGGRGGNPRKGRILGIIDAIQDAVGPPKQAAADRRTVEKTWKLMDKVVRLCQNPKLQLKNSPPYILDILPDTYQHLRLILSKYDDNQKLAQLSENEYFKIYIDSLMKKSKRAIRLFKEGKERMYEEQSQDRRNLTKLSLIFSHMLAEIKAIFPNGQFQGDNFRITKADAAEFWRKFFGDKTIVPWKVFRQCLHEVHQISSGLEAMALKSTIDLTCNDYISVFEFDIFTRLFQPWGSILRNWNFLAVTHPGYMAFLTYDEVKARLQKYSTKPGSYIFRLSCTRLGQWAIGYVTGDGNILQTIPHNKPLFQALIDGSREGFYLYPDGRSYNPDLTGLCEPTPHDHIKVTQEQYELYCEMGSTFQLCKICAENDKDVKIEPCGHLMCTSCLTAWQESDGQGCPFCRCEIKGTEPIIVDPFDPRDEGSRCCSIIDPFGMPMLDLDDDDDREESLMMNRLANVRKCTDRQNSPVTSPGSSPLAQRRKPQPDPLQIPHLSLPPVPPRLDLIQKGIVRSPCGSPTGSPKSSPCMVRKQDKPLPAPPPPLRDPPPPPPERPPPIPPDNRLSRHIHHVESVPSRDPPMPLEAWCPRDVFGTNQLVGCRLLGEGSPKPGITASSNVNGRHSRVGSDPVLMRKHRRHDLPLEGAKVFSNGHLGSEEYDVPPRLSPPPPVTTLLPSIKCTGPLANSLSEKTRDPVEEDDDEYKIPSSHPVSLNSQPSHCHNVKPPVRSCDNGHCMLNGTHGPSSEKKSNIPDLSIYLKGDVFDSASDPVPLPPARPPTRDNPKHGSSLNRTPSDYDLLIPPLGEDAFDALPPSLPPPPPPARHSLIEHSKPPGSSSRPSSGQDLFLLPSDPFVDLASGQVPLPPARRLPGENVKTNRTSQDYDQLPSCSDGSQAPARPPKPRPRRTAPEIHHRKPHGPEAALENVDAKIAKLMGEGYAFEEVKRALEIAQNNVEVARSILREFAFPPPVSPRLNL

Take `C[C@H]1CCCN([C@H](C)c2cc(C(F)(F)F)c3cn(-c4cccc(C5(c6nncn6C)CCC5)c4)c(=O)n3c2)C1` [Compound 506_P1]: the IC50 is under 100 nM.
In the case of `C[C@H]1CCCN([C@@H](C)c2cc(C(F)(F)F)c3cn(-c4cccc(C5(c6nncn6C)CCC5)c4)c(=O)n3c2)C1` [Compound 506_P2], the IC50 was under 100 nM.
The result for `COC[C@@H]1CCN1Cc1cc(C(F)(F)F)c2cn(-c3cccc([C@H](c4nncn4C)C4CCC4)c3)c(=O)n2c1` [Compound 507] reads under 100 nM; that for `CN(Cc1cc(C(F)(F)F)c2cn(-c3cccc([C@H](c4nncn4C)C4CCC4)c3)c(=O)n2c1)S(C)(=O)=O` [Compound 520], under 100 nM; that for `COC(=O)CN(C)Cc1cc(C(F)(F)F)c2cn(-c3cccc([C@H](c4nncn4C)C4CCC4)c3)c(=O)n2c1` [Compound 521], under 100 nM.
The result for `CN(CC(=O)O)Cc1cc(C(F)(F)F)c2cn(-c3cccc([C@H](c4nncn4C)C4CCC4)c3)c(=O)n2c1` [Compound 522] reads under 100 nM; that for `CN1CCC2(CCN(Cc3cc(C(F)(F)F)c4cn(-c5cccc([C@H](c6nncn6C)C6CCC6)c5)c(=O)n4c3)CC2)C1=O` [Compound 523], under 100 nM.
In the case of `Cn1cnnc1[C@@H](c1cccc(-n2cc3c(C(F)(F)F)cc(CN4CCC5(CCO5)CC4)cn3c2=O)c1)C1CCC1` [Compound 524] it was under 100 nM.
With `Cn1cnnc1[C@@H](c1cccc(-n2cc3c(C(F)(F)F)cc(CN4CCC5(CC4)COC5)cn3c2=O)c1)C1CCC1` [Compound 525], the IC50 was under 100 nM.
Take `[2H]C([2H])(c1cc(C(F)(F)F)c2cn(-c3cccc([C@H](c4nncn4C)C4CCC4)c3)c(=O)n2c1)N1CCC(C)(F)CC1` [Compound 526]: the IC50 was under 100 nM.
In the case of `[2H]C([2H])(c1cc(C(F)(F)F)c2cn(-c3cccc([C@H](c4nncn4C)C4CCC4)c3)c(=O)n2c1)N1CCO[C@H](C)C1` [Compound 527] it was under 100 nM; in that of `Cn1cnnc1[C@@H](c1cccc(-n2cc3c(C(F)(F)F)cc(CN4CCC5CC54)cn3c2=O)c1)C1CCC1` (some centres unmarked) [Compound 528], under 100 nM.
The result for `Cn1cnnc1[C@H](c1cc(-c2cnn[nH]2)cc(-n2cc3c(C(F)(F)F)cccn3c2=O)c1)C1CCC1` [Compound 535] reads 301 to 1000 nM; that for `Cn1cnnc1[C@@H](c1cc(-c2cnn[nH]2)cc(-n2cc3c(C(F)(F)F)cccn3c2=O)c1)C1CCC1` [Compound 536], over 10000 nM; that for `Cn1cnnc1[C@@H](c1cccc(-n2cc3c(C(F)(F)F)cc(CN4CCCS4(=O)=O)cn3c2=O)c1)C1CCC1` [Compound 541], under 100 nM.
In the case of `Cn1cnnc1[C@@H](c1cccc(-n2cc3c(C(F)(F)F)cc(CN4CCNS4(=O)=O)cn3c2=O)c1)C1CCC1` [Compound 542] it was under 100 nM; in that of `Cn1cnnc1[C@@H](c1cccc(-n2cc3c(C(F)(F)F)cc(CN4CCCCS4(=O)=O)cn3c2=O)c1)C1CCC1` [Compound 543], under 100 nM; in that of `Cn1cnnc1[C@@H](c1cccc(-n2cc3c(C(F)(F)F)cc(CN4CCCNS4(=O)=O)cn3c2=O)c1)C1CCC1` [Compound 544], under 100 nM.
Take `Cn1cnnc1[C@@H](c1cccc(-n2cc3c(C(F)(F)F)cc(CN4CCC5(CCOC5=O)CC4)cn3c2=O)c1)C1CCC1` [Compound 545]: the IC50 was under 100 nM.
The result for `[2H]C([2H])(c1cc(C(F)(F)F)c2cn(-c3cccc([C@H](c4nncn4C)C4COC4)c3)c(=O)n2c1)N1CCC[C@H](C)C1` [Compound 546] reads under 100 nM.
The result for `C[C@@H]1CCN1Cc1cc(C(F)(F)F)c2cn(-c3cccc([C@H](c4nncn4C)C4CCC4)c3)c(=O)n2c1` [Compound 547] reads under 100 nM.
The result for `COC[C@H]1CCN1Cc1cc(C(F)(F)F)c2cn(-c3cccc([C@H](c4nncn4C)C4CCC4)c3)c(=O)n2c1` [Compound 548] reads under 100 nM; that for `Cn1cnnc1[C@@H](c1cccc(-n2cc3c(C(F)(F)F)cc(CN4CC(C#N)C4)cn3c2=O)c1)C1CCC1` [Compound 549], under 100 nM.
For `C[C@H]1CCCN(Cc2cc(C(F)(F)F)c3cn(-c4csc([C@@H](c5nncn5C)C5CCC5)c4)c(=O)n3c2)C1` [Compound 550_P1], the IC50 was under 100 nM.
The result for `C[C@H]1CCCN(Cc2cc(C(F)(F)F)c3cn(-c4csc([C@H](c5nncn5C)C5CCC5)c4)c(=O)n3c2)C1` [Compound 550_P2] reads under 100 nM.
The result for `Cn1cnnc1[C@@H](c1cccc(-n2cc3c(C(F)(F)F)cc(CN4NC(=O)CC45COC5)cn3c2=O)c1)C1CCC1` [Compound 561] reads under 100 nM; that for `CN1CCCN(Cc2cc(C(F)(F)F)c3cn(-c4cccc([C@H](c5nncn5C)C5CCC5)c4)c(=O)n3c2)S1(=O)=O` [Compound 562], under 100 nM; that for `C[C@H]1CCC[N+]([O-])(Cc2cc(C(F)(F)F)c3cn(-c4cccc([C@H](c5nncn5C)C5CCC5)c4)c(=O)n3c2)C1` (some centres unmarked) [Compound 563], under 100 nM.
The result for `Cn1cnnc1[C@@H](c1cccc(-n2cc3c(C(F)(F)F)cc(CN4CC(C)(C#N)C4)cn3c2=O)c1)C1CCC1` [Compound 564] reads under 100 nM; that for `[2H]C([2H])(c1cc(C(F)(F)F)c2cn(-c3cccc([C@@H](c4nncn4C)C4COC4)c3)c(=O)n2c1)N1CCC[C@H](C)C1` [Compound 565_P1], over 10000 nM; that for `C[C@H]1CCN1Cc1cc(C(F)(F)F)c2cn(-c3cccc([C@H](c4nncn4C)C4CCC4)c3)c(=O)n2c1` [Compound 565_P2], under 100 nM.
Turning to `C[C@H]1CCCN(Cc2cc(C(F)(F)F)c3cn(-c4cccc([C@@H](c5n[nH]cc5C#N)C5CCC5)c4)c(=O)n3c2)C1` [Compound 566], the IC50 was over 10000 nM.
The result for `C[C@H]1CCCN(Cc2cc(C(F)(F)F)c3cn(-c4cccc([C@H](c5n[nH]cc5C#N)C5CCC5)c4)c(=O)n3c2)C1` [Compound 567] reads under 100 nM.
The result for `Cn1cnnc1[C@@H](c1cccc(-n2cc3c(C(F)(F)F)cc(CN4CCC[C@](C)(O)C4)cn3c2=O)c1)C1CCC1` [Compound 568] reads under 100 nM; that for `Cn1cnnc1[C@@H](c1cccc(-n2cc3c(C(F)(F)F)cc(CN4CCN(S(C)(=O)=O)CC4)cn3c2=O)c1)C1CCC1` [Compound 572], under 100 nM.
The result for `CCS(=O)(=O)N(C)Cc1cc(C(F)(F)F)c2cn(-c3cccc([C@H](c4nncn4C)C4CCC4)c3)c(=O)n2c1` [Compound 590] reads under 100 nM; that for `CCN(Cc1cc(C(F)(F)F)c2cn(-c3cccc([C@H](c4nncn4C)C4CCC4)c3)c(=O)n2c1)S(C)(=O)=O` [Compound 591], under 100 nM; that for `CCN(Cc1cc(C(F)(F)F)c2cn(-c3cccc([C@H](c4nncn4C)C4CCC4)c3)c(=O)n2c1)S(=O)(=O)CC` [Compound 592], under 100 nM.
In the case of `COCCN(Cc1cc(C(F)(F)F)c2cn(-c3cccc([C@H](c4nncn4C)C4CCC4)c3)c(=O)n2c1)S(C)(=O)=O` [Compound 593], the IC50 is under 100 nM.
For `COCCS(=O)(=O)N(C)Cc1cc(C(F)(F)F)c2cn(-c3cccc([C@H](c4nncn4C)C4CCC4)c3)c(=O)n2c1` [Compound 594], the IC50 was under 100 nM.
As to `CN(CCC(=O)O)Cc1cc(C(F)(F)F)c2cn(-c3cccc([C@H](c4nncn4C)C4CCC4)c3)c(=O)n2c1` [Compound 595], the IC50 was under 100 nM.
